Laboratory results: ChEMBL document CHEMBL4725372, “Rational Design of Suprastat: A Novel Selective Histone Deacetylase 6 Inhibitor with the Ability to Potentiate Immunotherapy in Melanoma Models” (J Med Chem, 2020)
Activity calls are given as the source filed them. The calls are words filed in the database; no cut-off is given here.

Assays:
[1] = system: HEK293; test: Selectivity index, ratio of IC50 for human HDAC3 expressed in HEK293/T17 cells (unknown origin) to human HDAC6 expressed in HEK293/T17 cells; assay type: cell-based
[2] = system: HEK293; test: Selectivity index, ratio of IC50 for human HDAC4 expressed in HEK293/T17 cells (unknown origin) to human HDAC6 expressed in HEK293/T17 cells; assay type: cell-based
[3] = system: HEK293; test: Selectivity index, ratio of IC50 for human HDAC6 expressed in HEK293/T17 cells (unknown origin) to human HDAC6 expressed in HEK293/T17 cells; assay type: cell-based
[4] = system: HEK293; test: Selectivity index, ratio of IC50 for human HDAC7 expressed in HEK293/T17 cells (unknown origin) to human HDAC6 expressed in HEK293/T17 cells; assay type: cell-based
[5] = system: HEK293; test: Selectivity index, ratio of IC50 for human HDAC8 expressed in HEK293/T17 cells (unknown origin) to human HDAC6 expressed in HEK293/T17 cells; assay type: cell-based
[6] = system: HEK293; test: Selectivity index, ratio of IC50 for human HDAC9 expressed in HEK293/T17 cells (unknown origin) to human HDAC6 expressed in HEK293/T17 cells; assay type: cell-based
[7] = Half life in human plasma at 10 uM by LC-MS/MS analysis; assay type: ADME, cell-free
[8] = Half life in rat liver microsome at 10 uM by LC-MS/MS analysis; assay type: ADME; details: liver microsomes
[9] = molecular target: T1, Protein deacetylase HDAC6 (Mus musculus) (UniProt Q9Z2V5); test: Inhibition of human HDAC6 in mouse RAW264.7 cells assessed as increase in acetylated alpha-tubulin levels at 1 to 10 uM by immunoblot analysis; assay type: cell-based; details: Macrophage, dose microM 1-10
T1 sequence (whole entry): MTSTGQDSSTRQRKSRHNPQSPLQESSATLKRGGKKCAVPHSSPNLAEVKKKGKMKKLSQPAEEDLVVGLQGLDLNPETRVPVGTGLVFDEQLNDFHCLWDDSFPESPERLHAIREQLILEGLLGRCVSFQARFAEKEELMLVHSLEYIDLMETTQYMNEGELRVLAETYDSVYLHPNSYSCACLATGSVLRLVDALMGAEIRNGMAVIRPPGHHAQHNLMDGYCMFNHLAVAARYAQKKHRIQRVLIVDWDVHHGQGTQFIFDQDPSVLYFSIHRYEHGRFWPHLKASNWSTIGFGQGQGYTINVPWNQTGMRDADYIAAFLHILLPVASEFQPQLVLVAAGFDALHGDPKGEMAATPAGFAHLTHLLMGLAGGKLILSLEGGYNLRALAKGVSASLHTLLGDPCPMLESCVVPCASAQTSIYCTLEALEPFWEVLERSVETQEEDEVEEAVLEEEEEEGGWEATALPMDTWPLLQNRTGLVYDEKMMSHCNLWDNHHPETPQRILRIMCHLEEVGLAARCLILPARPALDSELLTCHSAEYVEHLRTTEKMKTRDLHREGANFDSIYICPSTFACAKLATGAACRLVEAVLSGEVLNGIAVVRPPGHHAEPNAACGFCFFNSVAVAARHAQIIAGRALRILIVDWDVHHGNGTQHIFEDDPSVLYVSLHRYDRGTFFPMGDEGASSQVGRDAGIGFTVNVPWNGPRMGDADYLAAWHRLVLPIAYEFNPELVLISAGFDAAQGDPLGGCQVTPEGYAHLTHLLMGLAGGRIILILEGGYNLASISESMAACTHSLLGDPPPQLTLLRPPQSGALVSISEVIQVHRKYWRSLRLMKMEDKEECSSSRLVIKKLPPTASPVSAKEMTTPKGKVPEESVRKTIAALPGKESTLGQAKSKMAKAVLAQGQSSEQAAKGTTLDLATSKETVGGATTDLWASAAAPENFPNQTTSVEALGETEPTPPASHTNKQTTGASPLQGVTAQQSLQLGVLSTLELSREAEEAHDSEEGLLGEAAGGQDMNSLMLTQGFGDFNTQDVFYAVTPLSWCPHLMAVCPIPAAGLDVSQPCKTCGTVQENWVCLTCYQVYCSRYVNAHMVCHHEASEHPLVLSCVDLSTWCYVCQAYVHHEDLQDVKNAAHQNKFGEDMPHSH

[10] = system: Mus musculus; test: Immunomodulatory activity in C57BL/6 mouse harboring mouse SM1 cells assessed as increase in M1/M2 macrophages ratio at 25 mg/kg, ip dosed 5 days per week before starting 15 mg/kg, ip anti-PD1 immune checkpoint blockade therapy by flow cytometry; assay type: functional, organism-based; details: time 5.0 day/week
[11] = system: Mus musculus; test: Immunomodulatory activity in C57BL/6 mouse harboring mouse SM1 cells assessed as increase in M1/M2 macrophages ratio at 25 mg/kg, ip dosed 5 days per week by flow cytometry; assay type: functional, organism-based; details: time 5.0 day/week
[12] = system: Mus musculus; test: Immunomodulatory activity in C57BL/6 mouse harboring mouse SM1 cells assessed as increase in CD8+ effector T-cells and effector memory cells at 25 mg/kg, ip dosed 5 days per week by flow cytometry; assay type: functional, organism-based; details: time 5.0 day/week
[13] = system: Mus musculus; test: Immunomodulatory activity in C57BL/6 mouse harboring mouse SM1 cells assessed as increase in CD8+ effector T-cells and effector memory cells at 25 mg/kg, ip dosed 5 days per week before starting 15 mg/kg, ip anti-PD1 immune checkpoint blockade therapy by flow cytometry; assay type: functional, organism-based; details: time 5.0 day/week
[14] = system: Mus musculus; test: Immunomodulatory activity in C57BL/6 mouse harboring mouse SM1 cells assessed as effect on immunosuppressive T-regs at 25 mg/kg, ip dosed 5 days per week by flow cytometry; assay type: functional, organism-based; details: time 5.0 day/week
[15] = system: Mus musculus; test: Immunomodulatory activity in C57BL/6 mouse harboring mouse SM1 cells assessed as increase in natural killer cells at 25 mg/kg, ip dosed 5 days per week before by flow cytometry; assay type: functional, organism-based; details: time 5.0 day/week

NCc1ccc(NC(=O)N(CCCCO)Cc2ccc(C(=O)NO)cc2)cc1
Ratio IC50 [1]: 880
Ratio IC50 [2]: 20600
Ratio IC50 [3]: 1
Ratio IC50 [4]: 3680
Ratio IC50 [5]: 1250
Ratio IC50 [6]: 15700
half-life at 10 µM [7]: > 5 h
half-life at 10 µM [8]: 2.95 h
inhibition [9]: Dose-dependent effect
Activity [10]: Active
Activity [11]: Active
Activity [12]: Active
Activity [13]: Active
Activity [14]: inactive
Activity [15]: Active
